Laboratory results from ChEMBL document CHEMBL4699583 (J Med Chem, 2020).
The source made the active and inactive calls.

Experiments:
[1] = biological target: Cannabinoid receptor 1 (Homo sapiens) (UniProt P21554); experiment: Agonist activity at human cannabinoid receptor 1 at 2 uM by cell based cAMP assay; type: functional
[2] = biological target: DNA topoisomerase 2-alpha (Homo sapiens, UniProt P11388); experiment: Poison activity at human topoisomerase 2alpha in human Hela cells assessed as H2AX phosphorylation at 10 uM incubated for 90 mins by Western blot analysis; type: cell-based
[3] = biological target: Alpha-1A adrenergic receptor (Homo sapiens) (UniProt P35348); experiment: Agonist activity at human ADRA1A at 2 uM by cell based calcium flux assay; type: functional
[4] = biological target: Beta-1 adrenergic receptor (Homo sapiens) (UniProt P08588); experiment: Agonist activity at human adrenergic beta1 receptor at 2 uM by cell based cAMP assay; type: functional
[5] = biological target: Beta-1 adrenergic receptor (Homo sapiens) (UniProt P08588); experiment: Antagonist activity at human adrenergic beta1 receptor at 2 uM by cell based cAMP assay; type: functional
[6] = biological target: Alpha-2A adrenergic receptor (Homo sapiens) (UniProt P08913); experiment: Agonist activity at human alpha-2A adrenergic receptor at 2 uM by cell based cAMP assay; type: functional
[7] = biological target: Beta-2 adrenergic receptor (Homo sapiens) (UniProt P07550); experiment: Agonist activity at human beta-2 adrenergic receptor at 2 uM by cell based cAMP assay; type: functional
[8] = biological target: Beta-2 adrenergic receptor (Homo sapiens) (UniProt P07550); experiment: Antagonist activity at human beta-2 adrenergic receptor at 2 uM by cell based cAMP assay; type: functional
[9] = biological target: Vasopressin V1a receptor (Homo sapiens) (UniProt P37288); experiment: Agonist activity at human vasopressin V1a receptor at 2 uM by cell based calcium flux assay; type: functional
[10] = biological target: Vasopressin V1a receptor (Homo sapiens) (UniProt P37288); experiment: Antagonist activity at human vasopressin V1a receptor at 2 uM by cell based calcium flux assay; type: functional
[11] = biological target: Cholecystokinin receptor type A (Homo sapiens) (UniProt P32238); experiment: Agonist activity at human cholecystokinin typeA receptor at 2 uM by cell based calcium flux assay; type: functional
[12] = biological target: Muscarinic acetylcholine receptor M1 (Homo sapiens) (UniProt P11229); experiment: Agonist activity at human muscarinic acetylcholine receptor M1 at 2 uM by cell based calcium flux assay; type: functional
[13] = biological target: Muscarinic acetylcholine receptor M2 (Homo sapiens) (UniProt P08172); experiment: Agonist activity at human muscarinic acetylcholine receptor M2 at 2 uM by cell based cAMP assay; type: functional
[14] = biological target: Muscarinic acetylcholine receptor M3 (Homo sapiens) (UniProt P20309); experiment: Agonist activity at human muscarinic acetylcholine receptor M3 at 2 uM by cell based calcium flux assay; type: functional
[15] = biological target: Muscarinic acetylcholine receptor M3 (Homo sapiens) (UniProt P20309); experiment: Antagonist activity at human muscarinic acetylcholine receptor M3 at 2 uM by cell based calcium flux assay; type: functional
[16] = biological target: Cannabinoid receptor 2 (Homo sapiens) (UniProt P34972); experiment: Agonist activity at human cannabinoid receptor 2 at 2 uM by cell based cAMP assay; type: functional
[17] = biological target: D(1A) dopamine receptor (Homo sapiens) (UniProt P21728); experiment: Antagonist activity at human dopamine D1 receptor at 2 uM by cell based cAMP assay; type: functional
[18] = biological target: Endothelin-1 receptor (Homo sapiens) (UniProt P25101); experiment: Agonist activity at human endothelin 1 receptor at 2 uM by cell based calcium flux assay; type: functional
[19] = biological target: Histamine H1 receptor (Homo sapiens) (UniProt P35367); experiment: Agonist activity at human histamine H1 receptor at 2 uM by cell based calcium flux assay; type: functional
[20] = biological target: Histamine H2 receptor (Homo sapiens) (UniProt P25021); experiment: Agonist activity at human histamine H2 receptor at 2 uM by cell based cAMP assay; type: functional
[21] = biological target: 5-hydroxytryptamine receptor 1B (Homo sapiens) (UniProt P28222); experiment: Antagonist activity at human 5HT1B receptor at 2 uM by cell based cAMP assay; type: functional
[22] = biological target: 5-hydroxytryptamine receptor 2A (Homo sapiens) (UniProt P28223); experiment: Agonist activity at human 5HT2A receptor at 2 uM by cell based calcium flux assay; type: functional
[23] = biological target: 5-hydroxytryptamine receptor 2B (Homo sapiens) (UniProt P41595); experiment: Agonist activity at human 5HT2B receptor at 2 uM by cell based calcium flux assay; type: functional
[24] = biological target: 5-hydroxytryptamine receptor 2B (Homo sapiens) (UniProt P41595); experiment: Antagonist activity at human 5HT2B receptor at 2 uM by cell based calcium flux assay; type: functional
[25] = biological target: Delta-type opioid receptor (Homo sapiens) (UniProt P41143); experiment: Agonist activity at human delta opioid receptor at 2 uM by cell based cAMP assay; type: functional
[26] = biological target: Delta-type opioid receptor (Homo sapiens) (UniProt P41143); experiment: Antagonist activity at human delta opioid receptor at 2 uM by cell based cAMP assay; type: functional
[27] = biological target: Kappa-type opioid receptor (Homo sapiens) (UniProt P41145); experiment: Antagonist activity at human kappa opioid receptor at 2 uM by cell based cAMP assay; type: functional
[28] = biological target: Mu-type opioid receptor (Homo sapiens) (UniProt P35372); experiment: Agonist activity at human mu opioid receptor at 2 uM by cell based cAMP assay; type: functional
[29] = biological target: Mu-type opioid receptor (Homo sapiens) (UniProt P35372); experiment: Antagonist activity at human mu opioid receptor at 2 uM by cell based cAMP assay; type: functional
[30] = biological target: Glucocorticoid receptor (Homo sapiens) (UniProt P04150); experiment: Agonist activity at human glucocorticoid receptor at 2 uM by cell based assay
[31] = biological target: Sodium-dependent noradrenaline transporter (Homo sapiens) (UniProt P23975); experiment: Inhibition of human norepinephrine transporter at 2 uM by cell based assay
[32] = biological target: Voltage-dependent L-type calcium channel subunit alpha-1C (Homo sapiens, UniProt Q13936); experiment: Inhibition of human L-type calcium channel Cav1.2 at 2 uM by cell based assay
[33] = biological target: T1, GABA-A receptor; alpha-1/beta-2/gamma-2 (Homo sapiens) (UniProt P14867+P47870+P18507); experiment: Activation of human GABA alpha1beta2gamma2 receptor at 2 uM by cell based assay
[34] = biological target: T1, GABA-A receptor; alpha-1/beta-2/gamma-2 (Homo sapiens); experiment: Inactivation of human GABA alpha1beta2gamma2 receptor at 2 uM by cell based assay
Homo sapiens = species on record: Homo sapiens; experiment: Inhibition of human 5HT3A channel at 2 uM by cell based calcium flux assay
[35] = biological target: T2, Voltage-gated potassium channel, IKs; KCNQ1(Kv7.1)/KCNE1(MinK) (Homo sapiens, UniProt P51787+P15382); experiment: Inhibition of human KvLQT1/mink at 2 uM by thallium flux assay; type: protein-complex assay
[36] = biological target: T2, Voltage-gated potassium channel, IKs; KCNQ1(Kv7.1)/KCNE1(MinK); experiment: Activation of human KvLQT1/mink at 2 uM by thallium flux assay; type: protein-complex assay
[37] = biological target: Neuronal acetylcholine receptor; alpha4/beta2 (Homo sapiens) (UniProt P17787+P43681); experiment: Activation of human alpha4beta2 nACHR at 2 uM by cell based calcium flux assay
[38] = biological target: Sodium channel protein type 5 subunit alpha (Homo sapiens, UniProt Q14524); experiment: Inhibition of human Nav1.5 at 2 uM by cell-based assay
[39] = biological target: Acetylcholinesterase (Homo sapiens) (UniProt P22303); experiment: Inhibition of human AChE at 2 uM
[40] = biological target: Amine oxidase [flavin-containing] A (Homo sapiens, UniProt P21397); experiment: Inhibition of human MAOA at 2 uM
[41] = biological target: Rho-associated protein kinase 1 (Homo sapiens) (UniProt Q13464); experiment: Inhibition of human ROCK1 at 2 uM
[42] = biological target: Vascular endothelial growth factor receptor 2 (Homo sapiens) (UniProt P35968); experiment: Inhibition of human VEGFR2 at 2 uM

Mu-type opioid receptor (Homo sapiens), sequence (P35372 whole entry): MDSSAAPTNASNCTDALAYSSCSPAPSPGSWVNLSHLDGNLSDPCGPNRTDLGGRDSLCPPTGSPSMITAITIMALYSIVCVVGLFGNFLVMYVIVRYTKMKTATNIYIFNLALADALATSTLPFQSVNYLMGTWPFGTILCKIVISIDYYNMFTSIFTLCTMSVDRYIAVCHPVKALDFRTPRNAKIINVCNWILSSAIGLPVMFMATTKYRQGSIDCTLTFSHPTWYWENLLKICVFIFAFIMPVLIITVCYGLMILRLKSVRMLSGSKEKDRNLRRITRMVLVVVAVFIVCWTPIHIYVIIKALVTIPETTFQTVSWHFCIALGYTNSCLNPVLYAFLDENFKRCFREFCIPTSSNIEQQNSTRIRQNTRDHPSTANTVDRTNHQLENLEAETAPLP
Beta-2 adrenergic receptor (Homo sapiens), sequence (P07550 whole entry, looked up): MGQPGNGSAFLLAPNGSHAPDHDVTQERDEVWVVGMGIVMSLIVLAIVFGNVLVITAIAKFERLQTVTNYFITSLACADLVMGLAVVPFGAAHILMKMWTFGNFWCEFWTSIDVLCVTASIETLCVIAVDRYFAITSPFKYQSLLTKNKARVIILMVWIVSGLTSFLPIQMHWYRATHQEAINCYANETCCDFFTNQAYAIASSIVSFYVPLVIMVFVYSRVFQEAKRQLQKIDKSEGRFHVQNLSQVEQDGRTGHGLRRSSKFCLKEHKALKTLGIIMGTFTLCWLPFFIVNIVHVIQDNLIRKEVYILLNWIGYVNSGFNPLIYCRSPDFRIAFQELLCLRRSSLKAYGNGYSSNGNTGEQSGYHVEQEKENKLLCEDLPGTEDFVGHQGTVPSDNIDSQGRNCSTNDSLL
5-hydroxytryptamine receptor 2B (Homo sapiens), sequence (P41595 whole entry): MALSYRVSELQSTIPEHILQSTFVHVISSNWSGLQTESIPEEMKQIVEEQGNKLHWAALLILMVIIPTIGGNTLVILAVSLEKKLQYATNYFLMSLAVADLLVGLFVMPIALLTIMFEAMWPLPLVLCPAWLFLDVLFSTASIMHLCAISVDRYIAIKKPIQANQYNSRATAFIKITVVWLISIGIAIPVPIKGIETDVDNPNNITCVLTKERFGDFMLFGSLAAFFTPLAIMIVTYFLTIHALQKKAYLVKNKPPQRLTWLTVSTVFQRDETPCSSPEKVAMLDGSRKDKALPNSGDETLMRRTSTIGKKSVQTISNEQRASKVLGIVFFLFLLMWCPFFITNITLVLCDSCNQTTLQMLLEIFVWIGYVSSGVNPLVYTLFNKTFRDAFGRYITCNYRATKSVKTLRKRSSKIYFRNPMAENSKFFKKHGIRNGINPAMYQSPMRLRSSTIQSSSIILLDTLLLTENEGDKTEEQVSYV
Vasopressin V1a receptor (Homo sapiens), sequence (P37288 whole entry, looked up): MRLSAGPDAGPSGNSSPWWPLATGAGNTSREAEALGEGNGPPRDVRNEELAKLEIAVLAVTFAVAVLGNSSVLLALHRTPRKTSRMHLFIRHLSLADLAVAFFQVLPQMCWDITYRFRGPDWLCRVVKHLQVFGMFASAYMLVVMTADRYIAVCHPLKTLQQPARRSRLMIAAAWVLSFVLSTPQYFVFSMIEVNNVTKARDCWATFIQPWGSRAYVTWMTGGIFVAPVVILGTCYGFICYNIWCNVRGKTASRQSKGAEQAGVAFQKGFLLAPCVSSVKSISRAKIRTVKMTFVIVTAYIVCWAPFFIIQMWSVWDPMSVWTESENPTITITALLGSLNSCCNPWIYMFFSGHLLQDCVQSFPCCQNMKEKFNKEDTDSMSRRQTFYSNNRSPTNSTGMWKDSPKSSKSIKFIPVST
Muscarinic acetylcholine receptor M3 (Homo sapiens), sequence (P20309 whole entry, looked up): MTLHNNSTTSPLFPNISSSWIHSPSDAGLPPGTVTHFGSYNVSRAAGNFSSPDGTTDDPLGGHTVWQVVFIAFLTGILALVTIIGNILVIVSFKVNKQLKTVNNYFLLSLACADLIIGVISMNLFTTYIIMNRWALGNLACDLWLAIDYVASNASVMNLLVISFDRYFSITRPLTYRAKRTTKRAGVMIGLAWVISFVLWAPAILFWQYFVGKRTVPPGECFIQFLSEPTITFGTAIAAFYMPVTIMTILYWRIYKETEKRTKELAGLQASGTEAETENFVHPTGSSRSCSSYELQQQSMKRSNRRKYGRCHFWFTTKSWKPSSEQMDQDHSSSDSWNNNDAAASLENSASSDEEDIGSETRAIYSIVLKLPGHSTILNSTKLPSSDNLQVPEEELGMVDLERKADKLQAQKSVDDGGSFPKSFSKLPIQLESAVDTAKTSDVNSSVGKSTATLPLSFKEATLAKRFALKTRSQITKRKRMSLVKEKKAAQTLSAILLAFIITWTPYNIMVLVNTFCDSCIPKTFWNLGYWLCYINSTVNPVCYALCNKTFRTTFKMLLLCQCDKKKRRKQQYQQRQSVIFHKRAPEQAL
Beta-1 adrenergic receptor (Homo sapiens), sequence (P08588 whole entry, looked up): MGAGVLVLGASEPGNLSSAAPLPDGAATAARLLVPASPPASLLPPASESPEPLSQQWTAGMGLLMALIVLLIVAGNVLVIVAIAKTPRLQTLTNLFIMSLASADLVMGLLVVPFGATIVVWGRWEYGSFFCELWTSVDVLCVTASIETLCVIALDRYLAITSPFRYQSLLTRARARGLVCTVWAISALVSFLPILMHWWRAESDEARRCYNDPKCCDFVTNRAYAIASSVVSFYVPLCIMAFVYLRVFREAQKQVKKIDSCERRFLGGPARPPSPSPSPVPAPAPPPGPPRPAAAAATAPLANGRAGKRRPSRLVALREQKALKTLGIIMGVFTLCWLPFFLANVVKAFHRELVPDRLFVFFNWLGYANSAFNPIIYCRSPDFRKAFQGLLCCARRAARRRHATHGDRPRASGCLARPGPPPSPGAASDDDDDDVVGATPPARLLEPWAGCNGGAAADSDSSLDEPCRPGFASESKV
T2 sequence (P51787 whole entry): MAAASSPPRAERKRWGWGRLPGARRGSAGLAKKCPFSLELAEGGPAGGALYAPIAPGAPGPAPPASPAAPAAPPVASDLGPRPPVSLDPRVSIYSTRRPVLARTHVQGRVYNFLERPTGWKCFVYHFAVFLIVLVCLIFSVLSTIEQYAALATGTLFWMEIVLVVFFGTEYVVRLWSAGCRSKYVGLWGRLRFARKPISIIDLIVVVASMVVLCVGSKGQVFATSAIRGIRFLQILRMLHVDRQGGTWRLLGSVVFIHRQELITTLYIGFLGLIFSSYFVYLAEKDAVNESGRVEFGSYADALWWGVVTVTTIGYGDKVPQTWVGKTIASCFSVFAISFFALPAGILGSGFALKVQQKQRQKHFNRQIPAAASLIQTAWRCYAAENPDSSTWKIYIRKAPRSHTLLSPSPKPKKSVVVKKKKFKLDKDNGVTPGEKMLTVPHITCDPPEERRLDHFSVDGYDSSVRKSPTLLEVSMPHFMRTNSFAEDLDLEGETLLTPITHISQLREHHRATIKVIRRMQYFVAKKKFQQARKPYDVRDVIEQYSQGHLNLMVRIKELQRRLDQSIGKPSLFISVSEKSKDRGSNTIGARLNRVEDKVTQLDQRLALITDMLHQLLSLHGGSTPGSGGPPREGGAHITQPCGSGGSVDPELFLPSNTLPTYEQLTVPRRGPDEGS
Delta-type opioid receptor (Homo sapiens), sequence (P41143 whole entry): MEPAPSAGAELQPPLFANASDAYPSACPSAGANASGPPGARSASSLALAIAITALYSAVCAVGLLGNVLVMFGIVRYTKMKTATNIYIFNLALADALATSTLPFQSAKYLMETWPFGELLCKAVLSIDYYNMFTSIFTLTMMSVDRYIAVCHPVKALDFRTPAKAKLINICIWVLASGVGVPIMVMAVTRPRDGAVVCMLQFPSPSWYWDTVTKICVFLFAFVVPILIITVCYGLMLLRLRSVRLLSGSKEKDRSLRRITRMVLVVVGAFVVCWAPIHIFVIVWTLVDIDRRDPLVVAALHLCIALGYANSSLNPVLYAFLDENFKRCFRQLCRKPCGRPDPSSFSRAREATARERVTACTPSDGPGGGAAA
5-hydroxytryptamine receptor 2A (Homo sapiens), sequence (P28223 whole entry): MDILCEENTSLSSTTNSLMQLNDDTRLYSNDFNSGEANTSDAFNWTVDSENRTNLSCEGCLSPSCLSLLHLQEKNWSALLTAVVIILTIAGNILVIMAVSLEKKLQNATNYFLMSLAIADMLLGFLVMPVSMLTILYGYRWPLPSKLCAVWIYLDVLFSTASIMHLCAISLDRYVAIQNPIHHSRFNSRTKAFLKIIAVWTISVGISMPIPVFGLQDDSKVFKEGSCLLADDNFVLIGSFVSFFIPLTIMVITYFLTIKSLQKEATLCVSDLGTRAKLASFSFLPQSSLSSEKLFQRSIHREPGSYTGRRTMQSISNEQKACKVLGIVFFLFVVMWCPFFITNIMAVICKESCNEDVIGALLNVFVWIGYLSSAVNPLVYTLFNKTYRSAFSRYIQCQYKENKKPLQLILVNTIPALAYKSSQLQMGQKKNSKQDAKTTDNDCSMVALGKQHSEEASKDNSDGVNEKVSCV
Amine oxidase [flavin-containing] A, sequence (P21397 whole entry): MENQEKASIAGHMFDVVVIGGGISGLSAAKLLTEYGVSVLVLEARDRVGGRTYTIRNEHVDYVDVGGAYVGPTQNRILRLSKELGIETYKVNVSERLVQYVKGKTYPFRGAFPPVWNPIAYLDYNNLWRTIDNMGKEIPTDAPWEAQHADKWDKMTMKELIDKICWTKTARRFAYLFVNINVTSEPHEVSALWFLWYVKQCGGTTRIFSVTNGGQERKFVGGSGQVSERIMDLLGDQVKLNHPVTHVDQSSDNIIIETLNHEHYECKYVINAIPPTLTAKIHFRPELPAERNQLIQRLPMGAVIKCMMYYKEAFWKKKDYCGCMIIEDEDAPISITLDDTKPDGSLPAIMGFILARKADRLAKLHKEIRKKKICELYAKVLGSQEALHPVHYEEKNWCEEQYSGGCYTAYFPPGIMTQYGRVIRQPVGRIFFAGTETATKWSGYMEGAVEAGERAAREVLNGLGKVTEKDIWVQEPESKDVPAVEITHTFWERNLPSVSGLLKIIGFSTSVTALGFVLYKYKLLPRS

CN(C)c1ccc(Nc2nc(-c3ccncc3)nc3c2CC(N)CC3)cc1 (stereo not drawn)
inactive: Activity [1] | Activity [3] | Activity [4] | Activity [5] | Activity [6] | Activity [7] | Activity [8] | Activity [9] | Activity [10] | Activity [11] | Activity [12] | Activity [13] | Activity [14] | Activity [15] | Activity [16] | Activity [17] | Activity [18] | Activity [19] | Activity [20] | Activity [21] | Activity [22] | Activity [23] | Activity [24] | Activity [25] | Activity [26] | Activity [27] | Activity [28] | Activity [29] | Activity [30] | inhibition [31] | Activity [33] | Activity [34] | inhibition (Homo sapiens) | Activity [37] | inhibition [39] | inhibition [41] | inhibition [42]
Not Active: Activity [2] | inhibition (INH) [32] | inhibition (INH) [35] | Activity [36] | inhibition (INH) [38] | inhibition (INH) [40]
